The text below walks through data of US20250177398A1, “CARBONIC ANHYDRASE ENZYMES FOR REGULATING MAST CELL HEMATOPOIESIS AND TYPE 2 INFLAMMATION” (RUTGERS, THE STATE UNIVERSITY OF NEW JERSEY, priority 2015, published 2025).

The subject of assay [1] is bone marrow-resident progenitor cells (mast cell and basophil development). Nature of the assay: Murine mast cell and basophil developmental assay: BM progenitor cells cultured with IL-3. The settings on record: BM cells + IL-3 10 ng/mL, 30 μg/mL MZ. The class given is cell-based, mouse. The method, then: FIGS. 6A-6B. Bone marrow-resident progenitor cells were cultured in media, media treated with IL-3 (10 ng/ml), media treated with IL-3 and compound 8 (25 ng/ml) (FIG. 6A) or, media treated with IL-3 and compound 16 (25, 50, or 75 ng/ml) (FIG. 6B). On day 7 post-culture mast cells were identified by flow cytometric analysis. Results are representative of 2 independent experiments with at least 4 technical replicated per experiment. Statistical analysis was performed using a Student's t-test. (*,p<0.05) (***,p<0.001).
BM cells were isolated from the femur of WT mice and cultured in the presence of 10 ng/mL of IL-3 and vehicle (1:10 DMSO to RPMI complete media) or 30 μg/mL MZ. Fresh IL-3 with either vehicle or MZ were added daily, and mast cell and basophil populations were evaluated on day 7 post-culture.
Further, it is illustrated that genetically editing Car1 in stem cells via CRISPR/Cas9 technology decreases their capacity to develop into mature mast cells. […] However, whether inhibitors that selectively target Car1 can be used to inhibit mast cell development was unknown. […] Therefore, it was sought to be determined whether compound 8 and/or compound 16 could inhibit mast cell development from progenitor cell populations. To test this, the mast cell developmental assay was employed and bone marrow-resident progenitor cells were treated with IL-3 to promote mast cell development.

In a further assay the test system is Aspergillus fumigatus. Nature of the assay: Aspergillus fumigatus (FLARE conidia) lung infection. As to conditions: A. fumigatus-infected mice, 2-3 mg MZ i.p. daily, 72 hours post-infection (FIGS. 3H-3J). The class given is in vivo, mouse. The method, then:
A. fumigatus strain Af293 was grown on glucose minimal media (GMM) agar plates for 3 days or Sabouraud dextrose agar (SDA) for 7-10 days at 37° C., respectively. Conidia were harvested by adding 0.01% Tween 80 to plates and gently scraping conidia from the plates using a cell scraper. Conidia were then filtered through sterile Miracloth, were washed and resuspended in phosphate buffered saline (PBS), and counted on a hemocytometer. FLARE conidia were prepared as previously described (Espinosa, et al., 2014. PLOS Pathog 10:e1003940). Mice were challenged with 5×10^7 A. fumigatus conidia intratracheally (i.t.) as described previously (Espinosa, et al., 2014. PLOS Pathog 10:e1003940). Mice were treated with vehicle (1:5 DMSO to PBS) or 2-3 mg of MZ i.p. daily and sacrificed 72 hours post-infection. Bronchoalveolar lavage (BAL) fluid was collected by washing the lungs with 2 mL of PBS containing 0.05M EDTA. After collection of the BAL fluid, lung samples were minced in RPMI containing 100 units/mL of collagenase (Gibco) and incubated at 37° C. for 60 minutes, disrupted and filtered. Subsequently, red blood cells were lysed using a Tris ammonium chloride solution. Analysis of neutrophils was conducted using a panel of cell surface markers: CD45, CD11b, and Ly6G as previously described (Espinosa, et al., 2014. PLOS Pathog 10:e1003940). […]

Assay [2] has as its system atopic dermatitis (AD)-like disease. Nature of the assay: MC903-induced atopic dermatitis-like disease. In kind it is in vivo, mouse. As to conditions: MC903-treated mice, 2-3 mg MZ i.p. daily. The method, then:
Single cell suspensions were made from mesenteric, or skin draining lymph nodes. Lymph node cells were cultured in RPMI complete medium and treated with and without anti-CD3 (BD Pharmingen: clone 145-2C11) and anti-CD28 antibodies (BD Pharmingen: clone 37.51) for 72 hours. Standard sandwich ELISA (eBioscience) was performed to measure IL-4 (clones 11B11 and BVD6-24G2), IL-5 (clones TRFK5 and TRFK4) and IL-13 (clones eBio13A and eBio1316H) levels in the cell-free supernatants. Serum quantities of Mcpt1 and IgE were measured by commercial sandwich ELISA kits (BD Biosciences, eBioscience).
Mice were treated once a day topically with 2 nmol of MC903 (calcipotriol, Tocris Bioscience) in 20 μl of ethanol for 6 days as described previously (Kim, et al., 2013. Sci Transl Med 5: 170ra116). MC903-treated mice were treated with vehicle (1:5 DMSO to PBS) or 2-3 mg of MZ i.p. daily and sacrificed on day 7 post-treatment.

The subject of assay [3] is IL-3C-induced intestinal mast cell responses and peripheral basophilia. The assay can be described thus: IL-3C treatment of Rag1-deficient mice. In kind it is in vivo, mouse. The settings on record: MZ 2 mg every day (FIG. 3G). The method, then:
Methods for maintenance, recovery, infection and isolation of Trichinella larvae were performed as previously described (Urban, et al., 2000. J Immunol 164:2046-2052). Mice were infected with 500 Trichinella muscle larvae by oral gavage and were treated with vehicle (1:5 DMSO to PBS) or 2-3 mg of MZ i.p. daily; mice were sacrificed between 10-11 days post-infection. At necropsy, single cell suspensions of mLNs and spleens were prepared as previously described (Giacomin, et al., 2012. Journal of immunology (Baltimore, Md.: 1950) 189:4371-4378) for basophil and mast cell analysis. Blood was collected and serum was isolated for analysis of Mcpt1 and IgE. Sections (1 cm) of small intestine (jejunum) were collected for real-time PCR and histological analysis. Remaining sections of small intestine were slit lengthwise, rinsed in PBS, and placed in HBSS for 4 hours at 37° C. and adult worms were quantified by microscopic analysis as previously described (Urban, et al., 2000. J Immunol 164:2046-2052). Rag1^−/− mice were injected (i.p.) with a combination of recombinant IL-3 (1 μg) and α-IL-3 antibody (0.5 μg) (BioLegend: clone MP2-8F8) in 200 μl PBS every 3 days for 7-10 days. IL-3C-treated mice were treated with MZ (2 mg) or vehicle (DMSO) every day.

The subject of assay [4] is Aspergillus fumigatus-induced allergic airway inflammation. The assay can be described thus: Aspergillus fumigatus extract-induced allergic asthma. The class given is in vivo, mouse. The settings on record: mice challenged intranasally with A. fumigatus extract for 3 weeks, MZ (FIG. 5). The method, then:
Aspergillus-induced allergic asthma. Mice were challenged with Aspergillus fumigatus allergic extract as previously described (Mathias, C. B., et al., J Immunol 182, 2416-2424 (2009)). Briefly, mice were challenged (intranasally) 3 times a week for 3 weeks with 50 μl of aqueous Aspergillus fumigatus Allergenic Extract (Greer laboratories: item # M3). After 3 weeks mice were sacrificed and BAL and lungs were processed as previously described (Espinosa, V., et al., PLOS Pathog 10, e1003940 (2014)).

`CC(=O)/N=c1/sc(S(N)(=O)=O)nn1C` [MZ, methazolamide]: the basophil numbers entry in assay [1] (day 7) was “decreased”. Moreover, the percentages of basophils entry in assay [1] (day 7 (FIG. 1F)) is “significantly increased”. Also, the “mast cell populations compared to controls” value in assay [1] (day 7 post-culture (FIG. 1E)) was “significantly reduced”. In addition, in the assay on Aspergillus fumigatus, the fungal clearance result is recorded as “increased” and the neutrophil responses entry is on record as “increased”. Moreover, in assay [2] (day 7 (FIG. 3E)), the “type 2 cytokine production (skin-draining LN IL-4, IL-5, IL-13) vs controls” value is “equivalent or significantly increased”. Further, the “AD-like pathology vs controls” value in assay [2] (day 7 (FIG. 3F)) is reported as “similar”. In addition, in assay [3], the IL-3C-induced basophilia result is on record as “no effect” and the “intestinal mast cell responses” value was “significantly reduced”. Besides, in assay [4], the “eosinophilic airway inflammation (eosinophils in BAL and lung)” value is “significantly reduced”; the “pulmonary mast cell responses” value is “significantly reduced”.
